Measured values taken from US20260217983A1, “SULFONIUM SALT PHOTOINITIATORS AND METHODS OF LED CURING A COMPOSITION WITH SAID SULFONIUM SALT PHOTOINITIATORS” (ARKEMA FRANCE, priority 2022, published 2026).
Entries after “also recorded” stand apart in the source; their conditions may differ.

Key:
[1] = FTIR-ATR cure test of cationic formulations (epoxide, oxetane conversion, 1100 cm^-1 peak growth); settings: 405 nm, cationic systems
Method: Matrixes: In a 1000 mL of metal can, formulation matrix was charged according to the percentage in Table 12. The 1000-1005 g mixture of each matrix sample was prepared and mixed by mechanical mixer for about 1 hour around 60° C. until the solution became clear. Formulations: In a white max 50 jar from FlackTek Inc., photoinitiator and propylene carbonate were loaded at first, mixed by hand with stainless steel spatula, placed in 60° C. oven for about 1 h, mixed again until it became clear. Then, formulation matrix was charged according to the percentage in one of Table 13 to 21. The […]-52.60 g mixture of each sample was prepared and mixed for 3 minutes at 3000 RPM in Speed Mixer from FleackTec Inc. Then, all jars were placed in 60° C. oven for about 2 h, taken out and immediately mixed for another 2 minutes until the solution became clear.
A Fourier Transform Infrared (FTIR) with an Attenuated Total Reflection (ATR) setup was used. All polymerization rate measurements were performed using Nicolet iS50 FT-IR Spectrometer from Thermo Scientific, equipped with a standard DLaTGS detector. A lamp holder for the ART platform of FTIR unit can be customized and printed from Arkema N3xtDimention® engineered resin N3D-TOUGH784 in order to ensure precisely fit of a 365 nm lamp Accucure ULM-2-365 or a 405 nm lamp Accucure ULM-2-405 from Digital Light Labs. On the bottom of this lamp holder, a dry air channel is built in to allow air uniformly blowing over sample surface, the gas flow rate can be controlled over a rotameter. The LED light was manually triggered by Ultraviolet illumination & Measurement System. LED light exposure can be programed by AccuCure software. For measurement, 25 μL of liquid sample was placed in the center of an ATR crystal. 3 mil of thin film was prepared by a customized coating applicator (3 mil WFM, G1046 from BYK). The LED lamp with holder was place on the top of ART platform. Then FTIR scan was initiated to collect liquid IR spectrum at first. Each IR spectrum of a specific exposure time at 10 mW/cm^2 of LED light were collected. Measurements of acrylate conversion were taken at the peak height under the reference peak around 1727 cm^−1; the acrylate peak of SR833S at approximately 1407 cm^−1, the epoxide peak of UviCure S105 at approximately 790 cm^−1, and the oxetane peak of UViCure S130 at approximately 970 cm^−1 were also measured. Since the ring opening of both epoxide and oxetane generated C—O—C bond, the growth of C—O—C IR peak height at ~1100 cm^−1 was monitored as well. The resulting of peak 1100 cm^−1 growth rate could be calculated to assess total cationic cure speed. Peak heights were determined using the same baseline where a baseline is chosen to be the two lowest points between 600 cm^−1 and 1800 cm^−1. The peak height under the peak and above the baseline was then determined. The integration limits for liquid and the cured sample are not identical but are similar, especially for the reference peak.
The ratios of the acrylate peak height, epoxide peak height, ring opening peak height from both epoxide and oxetane to the reference peak height were determined for both the liquid and the cured samples. Degree of cure or conversion or peak growth rate, expressed as percentage reacted acrylate or epoxide or ring opening of both epoxide and oxetane, was calculated from the equation below: […]
Where Rliq is the peak height ratio of the liquid sample and Rc is the peak height ratio of the LED cured sample. The resulting acrylate and epoxide conversions or C—O—C growth rates were collected and listed in Tables 13 to 21, plotted in FIG. 1 to 8 and FIG. 10.

[2] = Belt curing performance (thumb-twist depth cure) in UViCure S105E resin; settings: 24 μm film, under air, PI 2 wt %
Method: (§1) The photoinitiators were dissolved either in neat UViCure S105E resin or a hybrid acrylate/epoxy resin (prepared by mixing 60 wt parts UViCure S105E, 15 wt parts UViCure S130 and 25 wt parts SR492; all product are available from Sartomer). Formulations were prepared by combining all materials in the given proportions and then stirring at 30-40° C. until the samples were fully homogeneous; the formulations were then allowed to cool to room temperature. For all experiments, the formulations were cured on Leneta Form 3N-31 gloss finish paper at 6 μm and 24 μm film thickness using a belt-cure instrument; the films were prepared using a K-bar. All films were then cured under an LED lamp at a given belt speed. ‘Depth cure’ for each formulation was assessed using the ‘thumb-twist’ test (where no visible mark is made when a thumb is pressed down firmly onto the coating with a twisting motion), and from the belt speed; the calculated cure speed (in m/min) is given.

[3] = 3D printability in hybrid system on 405 nm DLP printers; settings: hybrid formulations of Table 23
[4] = Solubility in propylene carbonate at ambient temperature; format: physicochemical; settings: 20-25° C.
Method: Solubility of selected sulfonium salts in propylene carbonate at ambient temperature (20-25° C.) was determined.

[5] = Transmittance at 0.01% w/v in propylene carbonate; format: physicochemical
Method: The samples were prepared at 0.01% w/v in propylene carbonate.

[6] = Belt curing performance (thumb-twist depth cure) in hybrid acrylate/epoxy resin; settings: 24 μm film, under air, PI 2 wt %
Method: as §1

[7] = UV Vis spectra measurement; format: physicochemical; settings: 10 ppm in acetonitrile
Text: UV-Vis spectrum of each sample was taken with a Shimadzu UV1800 spectrophotometer using a 1.0 cm path of cuvette quartz cell in accordance with ASTM E169-04, and scanning the spectrum over the wavelength range of 450 to 200 nm.

[8] = LED 365 nm, 100% intensity (=70.1 mJ/cm^2), belt speed 40 m/min

Structure (SMILES): COC(OC)(C(=O)c1ccccc1)c1ccccc1 [Speedcure BKL, 2,2-dimethoxy-1,2-diphenylethan-1-one, reference compound]
- effect of radical photoinitiator on cationic photopolymerization [1]: Neither radical photoinitiator BKL nor TPO-L could promote cationic photopolymerization

Structure (SMILES): CCOP(=O)(C(=O)c1c(C)cc(C)cc1C)c1ccccc1 (centres unmarked) [Speedcure TPO-L, Ethyl(2,4,6-trimethylbenzoyl)phenyl phosphinate, reference compound]
- effect of radical photoinitiator on cationic photopolymerization [1]: Neither radical photoinitiator BKL nor TPO-L could promote cationic photopolymerization; also recorded: slowed down the most

Structure (SMILES): CC(C)c1ccc2c(c1)c(=O)c1ccccc1[s+]2-c1ccc(-c2ccccc2)cc1 (centres unmarked) [Omnicat 550, 10-[1,1′-Biphenyl]-4-yl-2-(1-methylethyl)-9-oxo-9H-thioxanthenium hexafluorophosphate, reference compound]
- Cure speed in UViCure S105E resin [2, 8]: 5.0 m/min
- Cure speed in UViCure S105E resin ([2]; LED 395 nm, 40 m/min, 100% intensity (=164.5 mJ/cm^2)): 8.0 m/min
- printability on 405 nm DLP printers [3]: not printable even with over exposure time
- Solubility in propylene carbonate [4]: 25 wt %
- % Transmittance at 355 nm [5]: 86.8%
- % Transmittance at 420 nm [5]: 99.1%
- Cure speed in hybrid acrylate/epoxy resin [6, 8]: 5.7 m/min
- Cure speed in hybrid acrylate/epoxy resin ([6]; LED 395 nm, 80 m/min, 50% intensity (=36.9 mJ/cm^2)): 10.5 m/min

Structure (SMILES): CC(C)(C)c1ccc([I+]c2ccc(C(C)(C)C)cc2)cc1 [Speedcure 938, Bis (4-tert-butylphenyl) iodonium hexafluorophosphate, reference compound]
- UV absorption over 310 nm wavelength [7]: did not have any absorption at all
